The values that follow come from article PMC6608569 (Bioorganic & medicinal chemistry letters, 2019).

The target of assay [1] is GRP78 (Homo sapiens, UniProt P11021). In words: Fluorescence polarization FITC-NRLLLTG peptide. Conditions: peptide binding assay, 8-point dose responses. (Fluorescence polarisation rises when a labelled molecule tumbles more slowly, as on binding a larger partner.)
Assay [2] relates to HCT116 cells. In words: Unfolded protein response markers by immunoblot. The format is cell-based. Conditions: 16 hours, three concentrations. For orientation: In western blotting, separated proteins are transferred to a membrane and probed.
Assay [3] has as its system HCT116 cells. Description: Annexin V / propidium iodide flow cytometry. It counts as cell-based.

Sequence of GRP78 (P11021 26-636): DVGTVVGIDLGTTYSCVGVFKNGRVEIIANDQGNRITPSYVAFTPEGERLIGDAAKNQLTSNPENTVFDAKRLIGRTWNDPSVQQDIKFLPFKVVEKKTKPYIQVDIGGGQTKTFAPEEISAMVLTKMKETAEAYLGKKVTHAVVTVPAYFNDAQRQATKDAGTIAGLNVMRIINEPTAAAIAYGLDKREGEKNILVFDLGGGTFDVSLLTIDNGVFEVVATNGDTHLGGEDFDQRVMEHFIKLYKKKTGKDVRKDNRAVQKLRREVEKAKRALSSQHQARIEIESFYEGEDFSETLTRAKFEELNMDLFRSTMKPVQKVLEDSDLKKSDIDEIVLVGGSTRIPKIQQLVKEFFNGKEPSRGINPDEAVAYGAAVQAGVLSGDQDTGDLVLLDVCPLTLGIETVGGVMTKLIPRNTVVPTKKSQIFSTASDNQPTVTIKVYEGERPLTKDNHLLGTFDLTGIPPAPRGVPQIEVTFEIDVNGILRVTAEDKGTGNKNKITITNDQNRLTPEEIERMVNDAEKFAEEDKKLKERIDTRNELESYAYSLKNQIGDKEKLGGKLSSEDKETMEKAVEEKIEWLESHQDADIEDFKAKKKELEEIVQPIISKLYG

As to `Oc1c(Cl)cc(Cl)c(Cl)c1Sc1c(O)c(Cl)cc(Cl)c1Cl` [compound 2], in assay [1], the “GRP78 inhibition, SAR result in words” value was “tolerated”.
As to `Oc1ccc(Cl)cc1Cc1cc(Cl)ccc1O` [compound 5], the “GRP78 inhibition, SAR result in words” value in assay [1] was “inactive”.
For `Oc1cc(Cl)ccc1Oc1ccc(Cl)cc1Cl` [compound 6], in assay [1], the “GRP78 inhibition, SAR result in words” value is recorded as “not tolerated”.
For the molecule `Oc1ccccc1Cc1ccccc1O` [compound 7], the “GRP78 inhibition, SAR result in words” value in assay [1] was “inactive”.
As for `CCc1cc(Cc2cc(CC)cc(C(C)(C)C)c2O)c(O)c(C(C)(C)C)c1` [compound 8], in assay [1], the “GRP78 inhibition, SAR result in words” value was “not tolerated”.
In the case of `O=C(Nc1cc(Cl)cc(Cl)c1O)c1c(O)c(Cl)cc(Cl)c1Cl` [compound 9], the “GRP78 inhibition, SAR result in words” value in assay [1] is recorded as “not tolerated”.
Still for that read-out and setting: the entry for `Cc1cc(Cc2cc(C)cc(C(C)(C)C)c2O)c(O)c(C(C)(C)C)c1` [compound 10] is “not tolerated”.
`Oc1c(Cl)cc(Cl)c(Cl)c1Cc1c(O)c(Cl)cc(Cl)c1Cl` [hexachlorophene]: the “induction of UPR markers (XBP1s, ATF4, CHOP)” value in assay [2] is “dose dependent induction”. For the same molecule, the “percentage of apoptotic cells (annexin V staining only) versus Taxol control” value in assay [3] (10 μM, 24 hours) is “same percentage of apoptotic cells”. Besides, the “percentage of apoptotic cells versus Taxol control” value in assay [3] (25 μM, 24 hours) is given as “larger percentage of apoptotic cells than the Taxol control”. In assay [3] (5, 10, or 25 μM, dose and time course), the “mechanism of cell death” value is “apoptotic cell death in a dose (Figure 6A) and time (Figure 6B) dependent manner”. Also, in assay [3] (time course), the “time of peak early apoptosis (annexin V positive and PI negative)” value was “about 24 hours”; the “time of peak late stage apoptosis (Annexin V and PI positive)” value is 36 h.
